From ChEMBL document CHEMBL3822364, “Synthesis, characterization and antimicrobial activity of novel Schiff base tethered boronate esters of 1,2-O-isopropylidene-α-d-xylofuranose” (2016)
Converted amounts (≈) assume the structure as drawn. The source made the active and inactive calls. The rule behind the calls is not given here.

How the values were obtained:
[1] = tested on: Salmonella paratyphi; assay: Antibacterial activity against Salmonella paratyphi measured after 24 hrs by NCCL protocol based broth dilution method; assay type: functional, Salmonella enterica subsp. enterica serovar Paratyphi A
[2] = tested on: Streptococcus mutans; assay: Antibacterial activity against Streptococcus mutans MTCC 497 measured after 24 hrs by NCCL protocol based broth dilution method; assay type: functional
[3] = tested on: Salmonella typhi; assay: Antibacterial activity against Salmonella typhi measured after 24 hrs by NCCL protocol based broth dilution method; assay type: functional, Salmonella enterica subsp. enterica serovar Typhi
[4] = tested on: Salmonella typhi; assay: Antibacterial activity against Salmonella typhi assessed as zone of inhibition at 100 ug/well measured after 24 hrs by agar well diffusion method; assay type: functional, Salmonella enterica subsp. enterica serovar Typhi; settings: Salmonella enterica, read-out: DIZ
[5] = tested on: Salmonella paratyphi; assay: Antibacterial activity against Salmonella paratyphi assessed as zone of inhibition at 100 ug/well measured after 24 hrs by agar well diffusion method; assay type: functional, Salmonella enterica subsp. enterica serovar Paratyphi A; settings: Salmonella enterica, read-out: DIZ
[6] = tested on: Micrococcus luteus; assay: Antibacterial activity against Micrococcus luteus MTCC 106 measured after 24 hrs by NCCL protocol based broth dilution method; assay type: functional
[7] = tested on: Staphylococcus aureus; assay: Antibacterial activity against Staphylococcus aureus MTCC 3160 measured after 24 hrs by NCCL protocol based broth dilution method; assay type: functional
[8] = tested on: Micrococcus luteus; assay: Antibacterial activity against Micrococcus luteus MTCC 106 assessed as zone of inhibition at 100 ug/well measured after 24 hrs by agar well diffusion method; assay type: functional; settings: MTCC 106, 24 h, read-out: DIZ
[9] = tested on: Klebsiella pneumoniae; assay: Antibacterial activity against Klebsiella pneumoniae MTCC 3384 assessed as zone of inhibition at 100 ug/well measured after 24 hrs by agar well diffusion method; assay type: functional; settings: MTCC 3384, 24 h, read-out: DIZ
[10] = tested on: Candida albicans; assay: Antifungal activity against Candida albicans MTCC 3017 measured after 48 hrs by NCCL protocol based broth dilution method; assay type: functional
[11] = tested on: Aspergillus fumigatus; assay: Antifungal activity against Aspergillus fumigatus MTCC 343 measured after 48 hrs by NCCL protocol based broth dilution method; assay type: functional
[12] = tested on: Klebsiella pneumoniae; assay: Antibacterial activity against Klebsiella pneumoniae MTCC 3384 measured after 24 hrs by NCCL protocol based broth dilution method; assay type: functional
[13] = tested on: Streptococcus mutans; assay: Antibacterial activity against Streptococcus mutans MTCC 497 assessed as zone of inhibition at 100 ug/well measured after 24 hrs by agar well diffusion method; assay type: functional; settings: MTCC 497, 24 h, read-out: DIZ
[14] = tested on: Staphylococcus aureus; assay: Antibacterial activity against Staphylococcus aureus MTCC 3160 assessed as zone of inhibition at 100 ug/well measured after 24 hrs by agar well diffusion method; assay type: functional; settings: MTCC 3160, 24 h, read-out: DIZ
[15] = tested on: Aspergillus fumigatus; assay: Antifungal activity against Aspergillus fumigatus MTCC 343 assessed as zone of inhibition at 100 ug/well measured after 48 hrs by agar well diffusion method; assay type: functional; settings: MTCC 343, 48 h, read-out: DIZ
[16] = tested on: Candida albicans; assay: Antifungal activity against Candida albicans MTCC 3017 assessed as zone of inhibition at 100 ug/well measured after 48 hrs by agar well diffusion method; assay type: functional; settings: MTCC 3017, 48 h, read-out: DIZ

CC1(C)O[C@H]2O[C@@H]3COB(c4cccc(C=O)c4)O[C@@H]3[C@H]2O1
MIC ([1]; Salmonella enterica): 62.5 µg/mL (≈ 206 µM) | MIC ([2]; MTCC 497, 24 h): 62.5 µg/mL (≈ 206 µM) | MIC ([3]; Salmonella enterica): 62.5 µg/mL (≈ 206 µM) | zone of inhibition at 100 µg/disc [4]: 18 mm | zone of inhibition at 100 µg/disc [5]: 18 mm | MIC ([6]; MTCC 106, 24 h): 250 µg/mL (≈ 822 µM) | MIC ([7]; MTCC 3160, 24 h): 250 µg/mL (≈ 822 µM) | zone of inhibition at 100 µg/disc [8]: 12 mm | zone of inhibition at 100 µg/disc [9]: 19 mm | MIC ([10]; MTCC 3017, 48 h): 250 µg/mL (≈ 822 µM) | MIC ([11]; MTCC 343, 48 h): 500 µg/mL (≈ 1640 µM) | MIC ([12]; MTCC 3384, 24 h): 62.5 µg/mL (≈ 206 µM) | zone of inhibition at 100 µg/disc [13]: 22 mm | zone of inhibition at 100 µg/disc [14]: 15 mm | zone of inhibition at 100 µg/disc [15]: 0 mm | zone of inhibition at 100 µg/disc [16]: 11 mm

CC1(C)O[C@H]2O[C@@H]3COC(c4ccc(C=O)cc4)O[C@@H]3[C@H]2O1 (some centres not stated)
MIC ([1]; Salmonella enterica subsp. enterica serovar Paratyphi A): inactive | MIC [2]: inactive | MIC ([3]; Salmonella enterica subsp. enterica serovar Typhi): inactive | zone of inhibition at 100 µg/disc [4]: 0 mm | zone of inhibition at 100 µg/disc [5]: 0 mm | MIC [6]: inactive | MIC [7]: inactive | zone of inhibition at 100 µg/disc [8]: 0 mm | zone of inhibition at 100 µg/disc [9]: 0 mm | MIC [10]: inactive | MIC [11]: inactive | MIC [12]: inactive | zone of inhibition at 100 µg/disc [13]: 0 mm | zone of inhibition at 100 µg/disc [14]: 0 mm | zone of inhibition at 100 µg/disc [15]: 0 mm | zone of inhibition at 100 µg/disc [16]: 0 mm

COc1ccc(/C=N/c2cccc(B3OC[C@H]4O[C@@H]5OC(C)(C)O[C@@H]5[C@H]4O3)c2)c(O)c1
MIC ([1]; Salmonella enterica): 250 µg/mL (≈ 588 µM) | MIC ([2]; MTCC 497, 24 h): 62.5 µg/mL (≈ 147 µM) | MIC ([3]; Salmonella enterica): 62.5 µg/mL (≈ 147 µM) | zone of inhibition at 100 µg/disc [4]: 21 mm | zone of inhibition at 100 µg/disc [5]: 0 mm | MIC ([6]; MTCC 106, 24 h): 62.5 µg/mL (≈ 147 µM) | MIC ([7]; MTCC 3160, 24 h): 125 µg/mL (≈ 294 µM) | zone of inhibition at 100 µg/disc [8]: 21 mm | zone of inhibition at 100 µg/disc [9]: 19 mm | MIC ([10]; MTCC 3017, 48 h): 250 µg/mL (≈ 588 µM) | MIC ([11]; MTCC 343, 48 h): 250 µg/mL (≈ 588 µM) | MIC ([12]; MTCC 3384, 24 h): 62.5 µg/mL (≈ 147 µM) | zone of inhibition at 100 µg/disc [13]: 22 mm | zone of inhibition at 100 µg/disc [14]: 15 mm | zone of inhibition at 100 µg/disc [15]: 0 mm | zone of inhibition at 100 µg/disc [16]: 13 mm

CC1(C)O[C@H]2O[C@@H]3COB(c4cccc(/N=C/c5cc([N+](=O)[O-])ccc5O)c4)O[C@@H]3[C@H]2O1
MIC ([1]; Salmonella enterica): 31.2 µg/mL (≈ 71 µM) | MIC ([2]; MTCC 497, 24 h): 31.2 µg/mL (≈ 71 µM) | MIC ([3]; Salmonella enterica): 15.6 µg/mL (≈ 35.5 µM) | zone of inhibition at 100 µg/disc [4]: 28 mm | zone of inhibition at 100 µg/disc [5]: 21 mm | MIC ([6]; MTCC 106, 24 h): 15.6 µg/mL (≈ 35.5 µM) | MIC ([7]; MTCC 3160, 24 h): 31.2 µg/mL (≈ 71 µM) | zone of inhibition at 100 µg/disc [8]: 25 mm | zone of inhibition at 100 µg/disc [9]: 18 mm | MIC ([10]; MTCC 3017, 48 h): 31.2 µg/mL (≈ 71 µM) | MIC ([11]; MTCC 343, 48 h): 62.5 µg/mL (≈ 142 µM) | MIC ([12]; MTCC 3384, 24 h): 62.5 µg/mL (≈ 142 µM) | zone of inhibition at 100 µg/disc [13]: 23 mm | zone of inhibition at 100 µg/disc [14]: 21 mm | zone of inhibition at 100 µg/disc [15]: 22 mm | zone of inhibition at 100 µg/disc [16]: 23 mm

CC(C)c1ccc(/N=C/c2ccc(B3OC[C@H]4O[C@@H]5OC(C)(C)O[C@@H]5[C@H]4O3)cc2)cc1
MIC ([1]; Salmonella enterica): 500 µg/mL (≈ 1190 µM) | MIC ([2]; MTCC 497, 24 h): 125 µg/mL (≈ 297 µM) | MIC ([3]; Salmonella enterica): 62.5 µg/mL (≈ 148 µM) | zone of inhibition at 100 µg/disc [4]: 22 mm | zone of inhibition at 100 µg/disc [5]: 0 mm | MIC ([6]; MTCC 106, 24 h): 250 µg/mL (≈ 593 µM) | MIC ([7]; MTCC 3160, 24 h): 125 µg/mL (≈ 297 µM) | zone of inhibition at 100 µg/disc [8]: 13 mm | zone of inhibition at 100 µg/disc [9]: 24 mm | MIC ([10]; MTCC 3017, 48 h): 250 µg/mL (≈ 593 µM) | MIC ([11]; MTCC 343, 48 h): 500 µg/mL (≈ 1190 µM) | MIC ([12]; MTCC 3384, 24 h): 31.2 µg/mL (≈ 74.2 µM) | zone of inhibition at 100 µg/disc [13]: 19 mm | zone of inhibition at 100 µg/disc [14]: 16 mm | zone of inhibition at 100 µg/disc [15]: 0 mm | zone of inhibition at 100 µg/disc [16]: 12 mm

CC1(C)O[C@H]2O[C@@H]3COB(c4ccc(/C=N/c5ccc(Cl)cc5)cc4)O[C@@H]3[C@H]2O1
MIC ([1]; Salmonella enterica): 125 µg/mL (≈ 302 µM) | MIC ([2]; MTCC 497, 24 h): 62.5 µg/mL (≈ 151 µM) | MIC ([3]; Salmonella enterica): 62.5 µg/mL (≈ 151 µM) | zone of inhibition at 100 µg/disc [4]: 22 mm | zone of inhibition at 100 µg/disc [5]: 13 mm | MIC ([6]; MTCC 106, 24 h): 125 µg/mL (≈ 302 µM) | MIC ([7]; MTCC 3160, 24 h): 125 µg/mL (≈ 302 µM) | zone of inhibition at 100 µg/disc [8]: 13 mm | zone of inhibition at 100 µg/disc [9]: 24 mm | MIC ([10]; MTCC 3017, 48 h): 250 µg/mL (≈ 604 µM) | MIC ([11]; MTCC 343, 48 h): 500 µg/mL (≈ 1210 µM) | MIC ([12]; MTCC 3384, 24 h): 62.5 µg/mL (≈ 151 µM) | zone of inhibition at 100 µg/disc [13]: 22 mm | zone of inhibition at 100 µg/disc [14]: 16 mm | zone of inhibition at 100 µg/disc [15]: 0 mm | zone of inhibition at 100 µg/disc [16]: 11 mm

Cc1ccccc1B1OC[C@H]2O[C@@H]3OC(C)(C)O[C@@H]3[C@H]2O1
MIC ([1]; Salmonella enterica): 125 µg/mL (≈ 431 µM) | MIC ([2]; MTCC 497, 24 h): 125 µg/mL (≈ 431 µM) | MIC ([3]; Salmonella enterica): 250 µg/mL (≈ 862 µM) | zone of inhibition at 100 µg/disc [4]: 7 mm | zone of inhibition at 100 µg/disc [5]: 6 mm | MIC ([6]; MTCC 106, 24 h): 250 µg/mL (≈ 862 µM) | MIC ([7]; MTCC 3160, 24 h): 250 µg/mL (≈ 862 µM) | zone of inhibition at 100 µg/disc [8]: 6 mm | zone of inhibition at 100 µg/disc [9]: 6 mm | MIC ([10]; MTCC 3017, 48 h): 500 µg/mL (≈ 1720 µM) | MIC ([11]; MTCC 343, 48 h): 500 µg/mL (≈ 1720 µM) | MIC ([12]; MTCC 3384, 24 h): 250 µg/mL (≈ 862 µM) | zone of inhibition at 100 µg/disc [13]: 9 mm | zone of inhibition at 100 µg/disc [14]: 7 mm | zone of inhibition at 100 µg/disc [15]: 6 mm | zone of inhibition at 100 µg/disc [16]: 7 mm
